Experimental data taken from US9598416B2, “Substituted benzothienyl-pyrrolotriazines and uses thereof in the treatment cancer” (Bayer Intellectual Property GmbH, priority 2011, dated 2017).
Structures can show the parent of a compound that is named as a salt. Where two headings read alike, the source gives them in different places.

What was measured:
human mTOR = human mTOR (Homo sapiens (Human), UniProt P42345); assay: mTOR kinase assay (TR-FRET, for comparative purposes); assay type: biochemical; conditions: for inhibition at 1 µM: read-out: mTOR % inhibition @ 1 μM
Excerpt: mTOR inhibitory activity of the compounds of the present invention was quantified employing the TR-FRET based mTOR assay as described in the following paragraphs: Recombinant fusion tagged mTOR protein [glutathione-S-transferase (GST) fused to human mTOR amino acids from 1360 to 2549], expressed in insect cells and purified by glutathione-sepharose affinity chromatography, was purchased from Invitrogen (Cat.-No. 4753) and used as enzyme. As substrate for the kinase reaction, a recombinant fusion protein of GFP and 4E-BP1 (purchased from Invitrogen, Cat.-No. PV4759) was used. Test compounds were dissolved in DMSO to generate 10 mM stock solutions. […] The resulting mixture was incubated for 1 h at 22° C. to allow formation of the complex between the phosphorylated substrate and the Tb-chelate labelled antibody. Subsequently, the amount of phosphorylated substrate was evaluated by measurement of the resonance energy transfer from the Tb-chelate to the GFP. For this, the fluorescence emissions at 495 nm and 520 nm after excitation at 340 nm was measured in an Envision 2104 multilabel reader (Perkin-Elmer). The ratio of the emissions at 520 nm and at 495 nm was taken as the measure for the amount of phosphorylated substrate.

human FGFR-3 = human FGFR-3 (Homo sapiens (Human), UniProt P22607); assay: FGFR-3 kinase assay (TR-FRET); assay type: biochemical; conditions: 10 μM ATP; compounds of the invention
[1] = 1 μM test compound, mean inhibition values

human mTOR, sequence (P42345 1360-2549): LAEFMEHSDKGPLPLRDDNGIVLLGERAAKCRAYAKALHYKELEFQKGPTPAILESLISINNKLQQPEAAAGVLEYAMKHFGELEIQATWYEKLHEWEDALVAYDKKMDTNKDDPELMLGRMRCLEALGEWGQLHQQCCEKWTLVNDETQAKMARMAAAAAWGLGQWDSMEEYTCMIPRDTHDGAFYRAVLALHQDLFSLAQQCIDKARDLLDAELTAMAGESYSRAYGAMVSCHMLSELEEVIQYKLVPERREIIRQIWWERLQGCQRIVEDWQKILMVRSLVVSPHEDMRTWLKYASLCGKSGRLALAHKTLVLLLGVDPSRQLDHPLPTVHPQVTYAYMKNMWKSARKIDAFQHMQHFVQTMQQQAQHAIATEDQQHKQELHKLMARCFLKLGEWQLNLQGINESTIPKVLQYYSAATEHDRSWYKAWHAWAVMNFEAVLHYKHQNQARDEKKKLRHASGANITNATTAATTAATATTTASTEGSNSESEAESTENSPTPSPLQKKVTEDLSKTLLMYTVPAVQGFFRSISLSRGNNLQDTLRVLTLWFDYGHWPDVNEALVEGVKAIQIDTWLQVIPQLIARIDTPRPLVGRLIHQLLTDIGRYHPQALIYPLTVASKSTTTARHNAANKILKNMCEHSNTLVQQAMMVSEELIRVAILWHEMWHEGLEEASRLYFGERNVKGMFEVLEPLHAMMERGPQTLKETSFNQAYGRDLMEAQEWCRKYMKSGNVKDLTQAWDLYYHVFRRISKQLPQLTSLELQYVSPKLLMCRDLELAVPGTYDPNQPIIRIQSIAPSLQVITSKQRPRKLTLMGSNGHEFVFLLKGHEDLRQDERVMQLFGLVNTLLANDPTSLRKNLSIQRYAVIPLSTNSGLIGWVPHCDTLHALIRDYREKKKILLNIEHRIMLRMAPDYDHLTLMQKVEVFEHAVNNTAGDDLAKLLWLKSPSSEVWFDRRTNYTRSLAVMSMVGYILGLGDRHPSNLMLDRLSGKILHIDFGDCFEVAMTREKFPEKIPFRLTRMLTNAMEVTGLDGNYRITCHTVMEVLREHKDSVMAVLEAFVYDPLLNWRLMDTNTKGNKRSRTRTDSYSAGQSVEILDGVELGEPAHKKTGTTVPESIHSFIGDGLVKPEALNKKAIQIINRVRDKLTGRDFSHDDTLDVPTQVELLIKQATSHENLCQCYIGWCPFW
human FGFR-3, sequence (P22607 397-806): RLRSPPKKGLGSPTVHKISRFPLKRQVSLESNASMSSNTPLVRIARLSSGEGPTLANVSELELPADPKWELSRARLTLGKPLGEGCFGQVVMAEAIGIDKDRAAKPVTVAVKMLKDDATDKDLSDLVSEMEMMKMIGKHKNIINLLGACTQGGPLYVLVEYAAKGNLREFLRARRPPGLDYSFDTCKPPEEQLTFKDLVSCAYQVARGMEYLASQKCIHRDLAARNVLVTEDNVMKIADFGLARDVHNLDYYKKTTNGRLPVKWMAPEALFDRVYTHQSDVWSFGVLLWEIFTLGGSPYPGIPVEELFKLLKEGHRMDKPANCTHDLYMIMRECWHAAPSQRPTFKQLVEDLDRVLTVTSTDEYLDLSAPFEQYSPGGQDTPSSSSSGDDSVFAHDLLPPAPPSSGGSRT

IC50 (human FGFR-3) [nM] | inhibition at 1 µM (human mTOR; [1]) [%] | Structure (SMILES) | inhibition at 1 µM (human mTOR) [%] | mTOR % inhibition @ 1 μM (human mTOR; [1])
0.4 | – | COc1cc(C)cc2cc(-c3c(CN4CCNC(=O)C4)cn4ncnc(N)c34)sc12 [Example 11, 4-{[4-Amino-5-(7-methoxy-5-methyl-1-benzothiophen-2-yl)pyrrolo[2,1-f][1,2,4]triazin-6-yl]-methyl}piperazin-2-one] | – | no inhib. effect detect.
15.1 | 5.3 | CNC(=O)CNCc1cn2ncnc(N)c2c1-c1cc2cc(C)cc(OC)c2s1 [Example 13, N^2-{[4-Amino-5-(7-methoxy-5-methyl-1-benzothiophen-2-yl)pyrrolo[2,1-f][1,2,4]triazin-6-yl]-methyl}-N-methylglycinamide] | – | –
0.8 | 0.3 | COc1cc(C)cc2cc(-c3c(CN(C)CC(N)=O)cn4ncnc(N)c34)sc12 [Example 14, N^2-{[4-Amino-5-(7-methoxy-5-methyl-1-benzothiophen-2-yl)pyrrolo[2,1-f][1,2,4]triazin-6-yl]-methyl}-N^2-methylglycinamide] | – | –
2.3 | 8.8 | COc1cc(C)cc2cc(-c3c(CNCC(N)=O)cn4ncnc(N)c34)sc12 [Example 16, N^2-{[4-Amino-5-(7-methoxy-5-methyl-1-benzothiophen-2-yl)pyrrolo[2,1-f][1,2,4]triazin-6-yl]-methyl}glycinamide] | – | –
27.9 | – | COc1cc(C)cc2cc(-c3c(CN4CCN(C(C)=O)CC4)cn4ncnc(N)c34)sc12 [Example 21, 1-(4-{[4-Amino-5-(7-methoxy-5-methyl-1-benzothiophen-2-yl)pyrrolo[2,1-f][1,2,4]triazin-6-yl]-methyl}piperazin-1-yl)ethanone] | – | no inhib. effect detect.
17.4 | 2 | COc1cc(C)cc2cc(-c3c(CN4CCOCC4)cn4ncnc(N)c34)sc12 [Example 23, 5-(7-Methoxy-5-methyl-1-benzothiophen-2-yl)-6-(morpholin-4-ylmethyl)pyrrolo[2,1-f][1,2,4]triazin-4-amine] | – | –
14.2 | 35.5 | CCOCc1cn2ncnc(N)c2c1-c1cc2cc(C)cc(OC)c2s1 [Example 28, 6-(Ethoxymethyl)-5-(7-methoxy-5-methyl-1-benzothiophen-2-yl)pyrrolo[2,1-f][1,2,4]triazin-4-amine] | – | –
18.7 | 0.6 | Cc1ccc2sc(-c3c(CN4CCNC(=O)C4)cn4ncnc(N)c34)cc2c1 [Example 29, 4-{[4-Amino-5-(5-methyl-1-benzothiophen-2-yl)pyrrolo[2,1-f][1,2,4]triazin-6-yl]methyl}piperazin-2-one] | – | –
3.1 | 1.6 | COc1cccc2cc(-c3c(CN4CCNC(=O)C4)cn4ncnc(N)c34)sc12 [Example 30, 4-{[4-Amino-5-(7-methoxy-1-benzothiophen-2-yl)pyrrolo[2,1-f][1,2,4]triazin-6-yl]methyl}piperazin-2-one] | – | –
0.3 | 9.1 | COc1cc(Cl)cc2cc(-c3c(CN4CCNC(=O)C4)cn4ncnc(N)c34)sc12 [Example 31, 4-{[4-Amino-5-(5-chloro-7-methoxy-1-benzothiophen-2-yl)pyrrolo[2,1-f][1,2,4]triazin-6-yl]methyl}-piperazin-2-one] | – | –

Structure (SMILES) | IC50 (human FGFR-3) [nM] | inhibition at 1 µM (human mTOR; [1]) [%] | inhibition at 1 µM (human mTOR) [%] | mTOR % inhibition @ 1 μM (human mTOR; [1])
COc1cc(C)cc2cc(-c3c(CNCCO)cn4ncnc(N)c34)sc12 [Example 10, 2-({[4-Amino-5-(7-methoxy-5-methyl-1-benzothiophen-2-yl)pyrrolo[2,1-f][1,2,4]triazin-6-yl]-methyl}amino)ethanol dihydrochloride] | 1.4 | – | 10.3 | –
CCOC(=O)CNCc1cn2ncnc(N)c2c1-c1cc2cc(C)cc(OC)c2s1 [Example 15, Ethyl N-{[4-amino-5-(7-methoxy-5-methyl-1-benzothiophen-2-yl)pyrrolo[2,1-f][1,2,4]triazin-6-yl]-methyl}glycinate dihydrochloride] | 87.1 | – | 4 | –
COc1cc(C)cc2cc(-c3c(CNCC(C)(C)O)cn4ncnc(N)c34)sc12 [Example 17, 1-({[4-Amino-5-(7-methoxy-5-methyl-1-benzothiophen-2-yl)pyrrolo[2,1-f][1,2,4]triazin-6-yl]-methyl}amino)-2-methylpropan-2-ol dihydrochloride] | 1.8 | – | – | no inhib. effect detect.
COc1cc(C)cc2cc(-c3c(CNCCCO)cn4ncnc(N)c34)sc12 [Example 20, 3-({[4-Amino-5-(7-methoxy-5-methyl-1-benzothiophen-2-yl)pyrrolo[2,1-f][1,2,4]triazin-6-yl]-methyl}amino)propan-1-ol dihydrochloride] | 15.2 | – | – | no inhib. effect detect.
COc1cc(C)cc2cc(-c3c(CN4CCN(C(=O)OC(C)(C)C)CC4)cn4ncnc(N)c34)sc12 [Example 22, tert-Butyl 4-{[4-amino-5-(7-methoxy-5-methyl-1-benzothiophen-2-yl)pyrrolo[2,1-f][1,2,4]triazin-6-yl]methyl}piperazine-1-carboxylate trifluoroacetate] | 10.8 | – | 1.6 | –
COc1cc(C)cc2cc(-c3c(CNCCNC(C)=O)cn4ncnc(N)c34)sc12 [Example 24, N-[2-({[4-Amino-5-(7-methoxy-5-methyl-1-benzothiophen-2-yl)pyrrolo[2,1-f][1,2,4]triazin-6-yl]-methyl}amino)ethyl]acetamide trifluoroacetate] | 8.7 | – | 0.3 | –
COc1cc(C)cc2cc(-c3c(CN4CCNCC4)cn4ncnc(N)c34)sc12 [Example 25, 5-(7-Methoxy-5-methyl-1-benzothiophen-2-yl)-6-(piperazin-1-ylmethyl)pyrrolo[2,1-f][1,2,4]triazin-4-amine trihydrochloride] | 0.4 | – | – | no inhib. effect detect.
COc1cc(C)cc2cc(-c3c(CN[C@H]4CCNC4=O)cn4ncnc(N)c34)sc12 [Example 27, (3S)-3-({[4-Amino-5-(7-methoxy-5-methyl-1-benzothiophen-2-yl)pyrrolo[2,1-f][1,2,4]triazin-6-yl]-methyl}amino)pyrrolidin-2-one dihydrochloride] | 0.5 | – | 5 | –
